In US20260274836A1, “NOVEL HEPATOSELECTIVE POLYADENYLATING POLYMERASES INHIBITORS AND THEIR METHOD OF USE” (Baruch S. Blumberg Institute, priority 2022, published 2026):
Read-outs that look alike come from different tables or passages of the source.

Columns and labels:
[1] = system: HAV; settings: Ifnar1^−/− mice, cited from earlier work
[2] = system: HAV; settings: cited from earlier work
[3] = target: T1, OATP1B3 (Homo sapiens, UniProt Q9NPD5); assay: OATP1B3 transporter substrate uptake in OATP1B3-HEK293 cells; type: in vitro ADME; settings: for Uptake Ratio (−/+Inhibitor): OATP1B3-HEK293 cells, inhibitor Rifamycin SV
T1 construct: expressed in transfected cells; host or cells: HEK293
T1 sequence (Q9NPD5 1-702): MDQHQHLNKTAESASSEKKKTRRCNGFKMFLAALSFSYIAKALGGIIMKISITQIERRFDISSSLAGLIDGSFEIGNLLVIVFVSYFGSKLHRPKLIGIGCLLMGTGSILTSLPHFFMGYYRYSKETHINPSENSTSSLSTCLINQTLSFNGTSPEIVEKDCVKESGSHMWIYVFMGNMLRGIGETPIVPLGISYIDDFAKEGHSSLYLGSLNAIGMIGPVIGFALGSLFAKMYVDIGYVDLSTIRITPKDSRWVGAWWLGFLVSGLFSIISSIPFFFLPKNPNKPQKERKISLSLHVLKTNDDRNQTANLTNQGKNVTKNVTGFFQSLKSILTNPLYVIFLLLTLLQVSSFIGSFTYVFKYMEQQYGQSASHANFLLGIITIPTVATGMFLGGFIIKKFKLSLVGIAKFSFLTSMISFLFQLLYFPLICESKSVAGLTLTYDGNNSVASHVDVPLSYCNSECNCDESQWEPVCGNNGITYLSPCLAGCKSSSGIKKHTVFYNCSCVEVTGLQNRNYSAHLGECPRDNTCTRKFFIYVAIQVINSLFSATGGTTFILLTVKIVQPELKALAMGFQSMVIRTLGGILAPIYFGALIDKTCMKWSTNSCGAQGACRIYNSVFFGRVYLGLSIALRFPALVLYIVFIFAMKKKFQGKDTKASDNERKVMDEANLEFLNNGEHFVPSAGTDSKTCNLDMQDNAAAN
Protocol: (§1) Protocol for identification of compounds that are substrates of transporters OATPIBI and OATPIB3. Transfected HEK293 and vector control HEK293 cells were cultured in 24-well poly-D-lysine or collagen-coated tissue culture plates ([…]) for 2 and 10 minutes respectively in transport buffer (HBSSg, pH 7.4, pre-warmed to 37° C.). At a defined time point, the uptake experiments were stopped by removing dosing solution followed by two washes of ice-cold HBSSg buffer. The cells were lysed for 2 minutes with 75% ACN containing an appropriate internal standard (when available). Lysis buffer were chilled to −20° C., and the plate was kept on ice during lysis. The cell lysate was transferred into a 96-well plate for sample analysis with LC-MS/MS analysis to determine concentration of test compound in cell lysate. The uptake of test compounds was normalized by total cell protein using the BCA Protein Assay Kit following the manufacturer's protocol. The inhibitor Rifamycin SV was used to block OATP1B1 and OATP1B3 transporter activity in order to determine uptake ratios.

[4] = target: T2, OATP1B1 (Homo sapiens, UniProt Q9Y6L6); assay: OATP1B1 transporter substrate uptake in OATP1B1-HEK293 cells; type: in vitro ADME; settings: for Uptake Ratio (−/+Inhibitor): OATP1B1-HEK293 cells, inhibitor Rifamycin SV
T2 construct: expressed in transfected cells; host or cells: HEK293
T2 sequence (Q9Y6L6 1-691): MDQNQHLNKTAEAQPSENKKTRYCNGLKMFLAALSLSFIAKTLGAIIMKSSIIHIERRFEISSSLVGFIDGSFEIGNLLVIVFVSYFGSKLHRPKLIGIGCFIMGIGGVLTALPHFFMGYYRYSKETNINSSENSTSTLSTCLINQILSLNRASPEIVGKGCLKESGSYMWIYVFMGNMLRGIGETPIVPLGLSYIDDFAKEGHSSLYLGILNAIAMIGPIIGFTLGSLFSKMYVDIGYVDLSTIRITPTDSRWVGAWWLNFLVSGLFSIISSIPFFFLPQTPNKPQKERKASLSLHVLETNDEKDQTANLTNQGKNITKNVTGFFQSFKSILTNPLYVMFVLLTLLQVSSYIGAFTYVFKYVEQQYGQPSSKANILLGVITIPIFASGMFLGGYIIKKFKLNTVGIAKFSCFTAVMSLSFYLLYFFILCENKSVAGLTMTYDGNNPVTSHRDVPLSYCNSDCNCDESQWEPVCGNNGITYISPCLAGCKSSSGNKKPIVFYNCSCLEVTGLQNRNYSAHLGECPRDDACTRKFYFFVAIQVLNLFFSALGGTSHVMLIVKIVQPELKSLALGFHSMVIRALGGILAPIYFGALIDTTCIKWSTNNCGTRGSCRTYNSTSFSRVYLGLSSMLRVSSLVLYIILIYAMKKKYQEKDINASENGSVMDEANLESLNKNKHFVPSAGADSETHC
Protocol: as §1

[5] = target: interaction of PAPD5 with ZCCHC14 (Homo sapiens, UniProt Q8NDF8); assay: Interaction of PAPD5 with ZCCHC14
Sequence of interaction of PAPD5 with ZCCHC14 (Q8NDF8 whole entry): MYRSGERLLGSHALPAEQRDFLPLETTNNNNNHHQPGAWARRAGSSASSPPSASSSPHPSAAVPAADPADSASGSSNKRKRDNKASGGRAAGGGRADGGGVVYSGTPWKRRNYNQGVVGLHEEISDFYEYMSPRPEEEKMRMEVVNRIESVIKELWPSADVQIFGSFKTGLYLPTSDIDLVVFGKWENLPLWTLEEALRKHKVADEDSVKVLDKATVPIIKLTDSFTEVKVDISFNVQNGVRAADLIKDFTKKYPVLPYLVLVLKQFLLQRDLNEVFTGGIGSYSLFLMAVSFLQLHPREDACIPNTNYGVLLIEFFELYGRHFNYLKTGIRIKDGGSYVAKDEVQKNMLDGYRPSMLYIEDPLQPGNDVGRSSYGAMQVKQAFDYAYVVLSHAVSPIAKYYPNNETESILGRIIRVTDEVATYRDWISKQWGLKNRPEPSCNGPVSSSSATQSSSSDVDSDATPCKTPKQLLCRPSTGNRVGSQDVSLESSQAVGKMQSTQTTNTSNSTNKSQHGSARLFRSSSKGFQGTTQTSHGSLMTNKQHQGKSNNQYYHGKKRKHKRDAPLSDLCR

[6] = system: 18f-NLuc reporter virus (HM175/18f HAV); assay: Antiviral activity against human hepatitis A virus, 18f-NLuc reporter virus in Huh-7 cells; type: cell-based, Human Hepatitis A Virus (Hepatovirus A)
Protocol: Assay for Antiviral Activity Against Human Hepatitis A Virus (Hepatovirus A).
(§2) Assays for the anti-HAV activity of the hepatoselective DHQ compounds were carried out in Huh-7 human hepatoma cells using the 18f-NLuc reporter virus, which expresses nanoluciferase (NLuc) from sequence inserted into the polyprotein coding region of the HM175/18f HAV genome between the VP1pX and 2B coding sequences (Yamane et al., 2019). The method was modified minimally from that described by Misumi et al. for iminosugar compounds (Misumi et al., 2021). Cells (approximately […]) were plated in wells of a 96-well plate with Dulbecco's modified Eagle medium (DMEM) and 10% fetal bovine serum. The cells were inoculated 24 hrs later with 18f-NLuc virus (approximately 10^6-10^7 genome equivalents) in medium containing increasing concentrations of the compounds of interest. The cells were re-incubated for 48 hrs at 37° C. in a 5% CO2 environment, then lysed in 1× passive lysis buffer (Promega) for 15 min at room temperature. Cell lysates were transferred to an opaque white 96-well plate (Corning, 3912) and NLuc assay carried out using the NLuc GLOW Assay kit (Nanolight Technology). Luminescence was measured using a Biotek Synergy II multi-mode plate reader (BioTek Instruments). The percent inhibition of replication was calculated by determining the reduction in NLuc activity from that expressed by infected cells incubated in parallel in the absence of compound, and 50% inhibitory endpoints estimated by fitting the data to a four parameter variable slope logistic curve using Prism 9 for Mac OS software (GraphPad). Cell toxicity of the compounds was assessed using the WST-1 Cell Proliferation Reagent (Sigma-Aldrich) at the end of the treatment period in parallel cultures of uninfected cells, with WST-1 reagent added to cultures for 1 hr prior to harvest and O.D. reading.
as §2, with “Additional exemplary compounds of the present invention are evaluated for anti-HAV activity in accordance with certain assays described hereinabove. As discussed above, assays” for “Assays”, “10^6-107” for “10^6-10^7”

[7] = in vitro; type: cell-based; settings: human
Protocol: Assays for the anti-HAV activity of the hepatoselective DHQ compounds were carried out in Huh-7 human hepatoma cells using the 18f-NLuc reporter virus, which expresses nanoluciferase (NLuc) from sequence inserted into the polyprotein coding region of the HM175/18f HAV genome between the VP1pX and 2B coding sequences (Yamane et al., 2019). The method was modified minimally from that described by Misumi et al. for iminosugar compounds (Misumi et al., 2021). Cells (approximately […]) were plated in wells of a 96-well plate with Dulbecco's modified Eagle medium (DMEM) and 10% fetal bovine serum. The cells were inoculated 24 hrs later with 18f-NLuc virus (approximately 10^6-10^7 genome equivalents) in medium containing increasing concentrations of the compounds of interest. […] Luminescence was measured using a Biotek Synergy II multi-mode plate reader (BioTek Instruments). […] Cell toxicity of the compounds was assessed using the WST-1 Cell Proliferation Reagent (Sigma-Aldrich) at the end of the treatment period in parallel cultures of uninfected cells, with WST-1 reagent added to cultures for 1 hr prior to harvest and O.D. reading.
Additional exemplary compounds of the present invention are evaluated for anti-HAV activity in accordance with certain assays described hereinabove. […] Luminescence was measured using a Biotek Synergy II multi-mode plate reader (BioTek Instruments). […]

[8] = read-out: EC50 HAV, Huh-7 cells, 18f-NLuc virus, 48 hrs
[9] = Hepatovirus A, Huh-7, 48 h, read-out: EC50 HAV (nM), Huh-7 cells, 18f-NLuc virus, 48 hrs

## COCCCOc1cc2c(cc1OC)-c1cc(=O)c(C(=O)O)cn1[C@H](C(C)C)C2 [DHQ-1]
[1]; given shortly after intravenous virus challenge
  Prevention of infection: completely prevented infection
[1]; oral treatment
  HAV replication in mice: blocked HAV replication
[2]
  HAV replication in cultured cells: inhibit HAV replication
[3]; test concentration 1 μM
  Uptake Ratio (−/+Inhibitor): 0.42
[3]; OATP1B3-HEK293 vs mock HEK293, test concentration 1 μM
  Uptake Ratio (Transporter(−Inhibitor)/Mock(−Inhibitor)): 0.56
[4]; test concentration 1 μM
  Uptake Ratio (−/+Inhibitor): 0.38
[4]; OATP1B1-HEK293 vs mock HEK293, test concentration 1 μM
  Uptake Ratio (Transporter(−Inhibitor)/Mock(−Inhibitor)): 0.71
[5]
  Interaction of PAPD5 with ZCCHC14: prevents the interaction of PAPD5 with ZCCHC14

## C[C@]12CC[C@@H]3c4ccc(O)cc4CC[C@H]3[C@@H]1CC[C@@H]2O[C@@H]1O[C@H](C(=O)O)[C@@H](O)[C@H](O)[C@H]1O [Estradiol 17-β Glucuronide]
[3]; test concentration 10 μM
  Uptake Ratio (−/+Inhibitor): 86.15
[3]; OATP1B3-HEK293 vs mock HEK293, test concentration 10 μM
  Uptake Ratio (Transporter(−Inhibitor)/Mock(−Inhibitor)): 98.86
[4]; test concentration 10 μM
  Uptake Ratio (−/+Inhibitor): 81.84
[4]; OATP1B1-HEK293 vs mock HEK293, test concentration 10 μM
  Uptake Ratio (Transporter(−Inhibitor)/Mock(−Inhibitor)): 48.70

## COc1cc2c(cc1OCCCCCCCCC(=O)O)C[C@@H](C(C)C)n1cc(C(=O)O)c(=O)cc1-2 [Example 8, (S)-9-((8-carboxyoctyl)oxy)-6-isopropyl-10-methoxy-2-oxo-6,7-dihydro-2H-pyrido[2,1-a]isoquinoline-3-carboxylic acid]
[6]; Hepatovirus A, Huh-7, 48 h, Huh-7 cells, 18f-NLuc virus, 48 hrs
  EC50: 18.2 nM
[7]
  CC50 at 48 h: > 10000 nM

## COc1cc2c(cc1OCCCCCCCCC(=O)O)C[C@@H](C(C)C)n1cc(C(=O)O)c(=O)cc1-2 [Example A]
[6]; [8]
  EC50: 67 nM

## COc1cc2c(cc1OCCCCCCCCC(=O)O)C[C@@H](C(C)C)n1cc(C(=O)O)c(=O)cc1-2 [Example B]
[6]; [8]
  EC50: 63 nM

## COc1cc2c(cc1OCCc1cccc(C(=O)O)c1)C[C@@H](C(C)C)n1cc(C(=O)O)c(=O)cc1-2 [Example C]
[6]; [9]
  EC50: 325 nM

## COc1cc2c(cc1OCCc1ccc(C(=O)O)cc1)C[C@@H](C(C)C)n1cc(C(=O)O)c(=O)cc1-2 [Example D]
[6]; [9]
  EC50: 245 nM

## COc1cc2c(cc1OCCCc1ccc(C(=O)O)cc1)C[C@@H](C(C)C)n1cc(C(=O)O)c(=O)cc1-2 [Example E]
[6]; [9]
  EC50: 382 nM

## COc1cc2c(cc1OCCCCCC(C)(C)C(=O)O)C[C@@H](C(C)C)n1cc(C(=O)O)c(=O)cc1-2 [Example F]
[6]; [9]
  EC50: 25 nM

## COc1cc2c(cc1OCCCCCCC(=O)O)C[C@@H](C(C)C)n1cc(C(=O)O)c(=O)cc1-2 [Example G]
[6]; [9]
  EC50: 278 nM

## COc1cc2c(cc1OCCCCCCCCC(=O)O)C[C@@H](C(C)C)n1cc(C(=O)O)c(=O)cc1-2 [Example H]
[6]; [8]
  EC50: 18.2 nM
